Experimental data reported in ChEMBL document CHEMBL5338738, “Discovery of Novel Sesquiterpene Lactone Derivatives as Potent PKM2 Activators for the Treatment of Ulcerative Colitis” (J Med Chem, 2023).
pIC50, pKd: −log10 of the molar value. Activity calls are given as the source filed them. The calls are words filed in the database; no cut-off is given here.

Experiments:
Mus musculus [1] = assay: Anti-colitis activity against DSS-induced ulcerative colitis C57BL/6 mouse model assessed as reduction in disease activity index (DAI) score at 12.5 to 25 mg/kg, po for 10 days consecutively; format: functional, organism-based; settings: dose 12.5-25 mg/kg, time 10.0 day
CD4+ve Th [2] = assay: Cytotoxicity against C57BL/6 mouse mesenteric lymph node CD4+ve Th cells assessed as reduction in cell proliferation at 0.3 to 3 uM incubated for 96 hrs by CCK-8 assay; format: toxicity, cell-based; settings: dose 0.3-3 µM
Mus musculus [3] = assay: Anti-colitis activity against DSS-induced ulcerative colitis C57BL/6 mouse model assessed as downregulation of Foxp3 mRNA expression level in spleen at 6.25 to 25 mg/kg, po for 10 days consecutively by qPCR assay; format: functional, organism-based; settings: dose 6.25-25 mg/kg, time 10.0 day
Mus musculus [4] = assay: Anti-colitis activity against DSS-induced ulcerative colitis C57BL/6 mouse model assessed as downregulation of IL10 mRNA expression level in mesenteric lymph nodes at 6.25 to 25 mg/kg, po for 10 days consecutively by qPCR assay; format: functional, organism-based; settings: dose 6.25-25 mg/kg, time 10.0 day
[5] = Microsomal stability in rat liver microsomes assessed as half life; format: ADME, Microsome
CD4+ve Th [6] = assay: Inhibition of aerobic glycolysis in anti-CD3/CD28 stimulated C57BL/6 mouse mesenteric lymph node CD4+ve Th cells assessed as downregulation of HK2 protein expression level at 0.3 to 3 uM incubated for 96 hrs in presence of recombinant human TGF-beta, recombinant mouse IL-6 and recombinant mouse IL-23 by Western blot analysis; format: functional, cell-based; settings: dose 0.3-3 µM
[7] = biological target: Pyruvate kinase PKM (Mus musculus) (UniProt P52480); assay: Binding affinity to PKM2 in C57BL/6 mouse mesenteric lymph node CD4+ve Th cells assessed as increase in denaturation temperature at 3 uM incubated for 4 hrs by […] analysis; settings: filed as activator
Pyruvate kinase PKM (Mus musculus), sequence (P52480 whole entry): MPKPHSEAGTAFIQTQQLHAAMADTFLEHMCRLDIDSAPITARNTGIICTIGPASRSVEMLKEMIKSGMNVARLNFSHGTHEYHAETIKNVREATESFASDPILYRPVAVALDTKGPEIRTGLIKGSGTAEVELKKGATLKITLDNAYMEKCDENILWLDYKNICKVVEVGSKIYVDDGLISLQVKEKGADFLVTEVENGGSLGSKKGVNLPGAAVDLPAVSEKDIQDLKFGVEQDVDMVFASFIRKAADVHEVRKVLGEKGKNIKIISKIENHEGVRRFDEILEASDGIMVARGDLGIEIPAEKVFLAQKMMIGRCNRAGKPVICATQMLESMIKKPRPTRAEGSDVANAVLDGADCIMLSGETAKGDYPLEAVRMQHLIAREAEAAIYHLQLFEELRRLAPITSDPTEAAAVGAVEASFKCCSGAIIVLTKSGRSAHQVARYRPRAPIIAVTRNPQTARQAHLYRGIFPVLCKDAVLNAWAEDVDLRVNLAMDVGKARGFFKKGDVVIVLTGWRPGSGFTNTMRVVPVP

[8] = Inhibition of Th17 cells differentiation in anti-CD3/CD28 stimulated C57BL/6 mouse mesenteric lymph node CD4+ve Th cells assessed as decrease in proportion of IL17A-positive Th17 cells at 1 uM incubated for 96 hrs in presence of recombinant human TGF-beta, recombinant mouse IL-6 and recombinant mouse IL-23 by flow cytometry (Rvb= 16.7%); format: functional; settings: C57BL/6, CD4+ve Th
[9] = Toxicity in C57BL/6 mouse assessed as histological change in spleen at 6.25 to 25 mg/kg, po for 10 days consecutively by H and E staining based microscopy; format: organism-based; settings: in vivo, 240 h, dose 6.25-25 mg/kg, time 10 day
CD4+ve Th [10] = assay: Inhibition of Treg cells differentiation in anti-CD3/CD28 stimulated C57BL/6 mouse mesenteric lymph node CD4+ve Th cells assessed as change in IL10 mRNA expression level cells at 0.1 to 3 uM incubated for 96 hrs in presence of recombinant human TGF-beta by qPCR analysis; format: functional, cell-based; settings: dose 0.1-3 µM
Mus musculus [11] = assay: Anti-colitis activity against TNBS-induced ulcerative colitis BALB/c mouse model assessed as decrease in infiltration of inflammatory cells into lamina propria in colon at 12.5 to 25 mg/kg, po for consecutive 7 days by H and E staining based microscopy; format: functional, organism-based; settings: dose 12.5-25 mg/kg, time 7.0 day
CD4+ve Th [12] = assay: Cytotoxicity against C57BL/6 mouse mesenteric lymph node CD4+ve Th cells assessed as reduction in cell viability at 0.3 to 3 uM incubated for 96 hrs by MTT assay; format: toxicity, cell-based; settings: dose 0.3-3 µM
Mus musculus [13] = assay: Anti-colitis activity against DSS-induced ulcerative colitis C57BL/6 mouse model assessed as downregulation of Foxp3 mRNA expression level in mesenteric lymph nodes at 6.25 to 25 mg/kg, po for 10 days consecutively by qPCR assay; format: functional, organism-based; settings: dose 6.25-25 mg/kg, time 10.0 day
Mus musculus [14] = assay: Anti-colitis activity against DSS-induced ulcerative colitis C57BL/6 mouse model assessed as downregulation of IL17a mRNA expression level in mesenteric lymph nodes at 12.5 to 25 mg/kg, po for 10 days consecutively by qPCR assay; format: functional, organism-based; settings: dose 12.5-25 mg/kg, time 10.0 day
[15] = Inhibition of Treg cells differentiation in anti-CD3/CD28 stimulated C57BL/6 mouse mesenteric lymph node CD4+ve Th cells assessed as decrease in proportion of Foxp3-positive Treg cells at 3 uM incubated for 96 hrs in presence of recombinant human TGF-beta by flow cytometry (Rvb= 21.1%); format: functional; settings: C57BL/6, CD4+ve Th
T-cell = assay: Immunomodulatory activity in C57BL/6 mouse mesenteric lymph node T cells assessed as inhibition of concanavalin A stimulated T-cell proliferation incubated for 68 hrs by CCK-8 assay; format: functional, cell-based; settings: C57BL/6, T-cell
[16] = biological target: Pyruvate kinase PKM (Mus musculus) (UniProt P52480); assay: Binding affinity to PKM2 in C57BL/6 mouse mesenteric lymph node CD4+ve Th cells assessed as increase in denaturation temperature at 3 uM incubated for 4 hrs by Solvent-induced protein precipitation analysis; format: tissue-based; settings: filed as activator
[17] = MRT(t) in Sprague-Dawley rat at 75 mg/kg,po and measured upto 24 hrs by LC-MS/MS analysis; format: ADME, organism-based; settings: in vivo
CD4+ve Th [18] = assay: Inhibition of aerobic glycolysis in anti-CD3/CD28 stimulated C57BL/6 mouse mesenteric lymph node CD4+ve Th cells assessed as decrease in ATP production at 0.3 to 3 uM incubated for 96 hrs in presence of recombinant human TGF-beta, recombinant mouse IL-6 and recombinant mouse IL-23 by colorimetric assay; format: functional, cell-based; settings: dose 0.3-3 µM
[19] = Clearance in Sprague-Dawley rat at 8 mg/kg,iv and measured upto 24 hrs by LC-MS/MS analysis; format: ADME, organism-based; settings: in vivo
Pyruvate kinase PKM = Pyruvate kinase PKM (Homo sapiens, UniProt P14618); assay: Binding affinity to PKM2 (unknown origin) by SPR assay
Pyruvate kinase PKM, sequence (P14618 whole entry): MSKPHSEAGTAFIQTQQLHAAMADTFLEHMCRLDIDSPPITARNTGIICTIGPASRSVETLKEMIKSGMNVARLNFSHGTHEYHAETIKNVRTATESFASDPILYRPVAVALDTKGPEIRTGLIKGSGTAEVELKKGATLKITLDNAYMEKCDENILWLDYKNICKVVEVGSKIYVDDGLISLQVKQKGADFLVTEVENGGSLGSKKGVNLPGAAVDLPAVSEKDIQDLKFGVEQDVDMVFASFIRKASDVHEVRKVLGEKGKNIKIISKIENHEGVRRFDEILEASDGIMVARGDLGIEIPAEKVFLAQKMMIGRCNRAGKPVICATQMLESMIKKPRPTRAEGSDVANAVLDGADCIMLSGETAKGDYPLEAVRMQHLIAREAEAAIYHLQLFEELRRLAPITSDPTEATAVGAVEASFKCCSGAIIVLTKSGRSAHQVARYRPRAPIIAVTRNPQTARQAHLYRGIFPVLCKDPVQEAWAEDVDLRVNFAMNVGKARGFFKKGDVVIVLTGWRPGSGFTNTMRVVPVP

[20] = Oral bioavailability in Sprague-Dawley rat at 75 mg/kg and measured upto 24 hrs by LC-MS/MS analysis; format: ADME, organism-based; settings: in vivo
Mus musculus [21] = assay: Anti-colitis activity against DSS-induced ulcerative colitis C57BL/6 mouse model assessed as reduction in histological score in colon at 12.5 to 25 mg/kg, po for 10 days consecutively by H and E staining based microscopic analysis; format: functional, organism-based; settings: dose 12.5-25 mg/kg, time 10.0 day
CD4+ve Th [22] = assay: Inhibition of Th17 cells differentiation in anti-CD3/CD28 stimulated C57BL/6 mouse mesenteric lymph node CD4+ve Th cells assessed as decrease in PKM2 expression in nucleus at 0.1 to 3 uM incubated for 96 hrs in presence of recombinant human TGF-beta, recombinant mouse IL-6 and recombinant mouse IL-23 by Western blot analysis; format: functional, cell-based; settings: dose 0.1-3 µM
Mus musculus [23] = assay: Anti-colitis activity against DSS-induced ulcerative colitis C57BL/6 mouse model assessed as downregulation of Foxp3 mRNA expression level in colon at 6.25 to 25 mg/kg, po for 10 days consecutively by qPCR assay; format: functional, organism-based; settings: dose 6.25-25 mg/kg, time 10.0 day
Mus musculus [24] = assay: Anti-colitis activity against DSS-induced ulcerative colitis C57BL/6 mouse model assessed as downregulation of IL10 mRNA expression level in spleen at 6.25 to 25 mg/kg, po for 10 days consecutively by qPCR assay; format: functional, organism-based; settings: dose 6.25-25 mg/kg, time 10.0 day
[25] = Half life in Sprague-Dawley rat at 8 mg/kg,iv and measured upto 24 hrs by LC-MS/MS analysis; format: ADME, organism-based; settings: in vivo
Mus musculus [26] = assay: Anti-colitis activity against DSS-induced ulcerative colitis C57BL/6 mouse model assessed as reduction in mucosal damage in colon at 12.5 to 25 mg/kg, po for 10 days consecutively by H and E staining based microscopic analysis; format: functional, organism-based; settings: dose 12.5-25 mg/kg, time 10.0 day

For `C=C1C(=O)O[C@H]2[C@H]1CC[C@@]1(C)[C@@H](CC[C@@]3(C)O[C@@H]23)C1(F)F`, the Activity (Mus musculus [1]) was “Active”, the Activity (CD4+ve Th [2]) was “Non-Toxic” and the Activity (Mus musculus [3]) was “inactive”. For the same compound, the Activity (Mus musculus [4]) was “inactive”, the half-life [5] was 0.21 h and the inhibition (CD4+ve Th [6]) was “Active”. For the same compound, the ΔTm [7] was 6 °C, the IL17A+ cells at 1 µM [8] was 8.1% and the Activity [9] was “Non-Toxic”. For the same compound, the inhibition (CD4+ve Th [10]) was “inactive”, the Activity (Mus musculus [11]) was “Active” and the Activity (CD4+ve Th [12]) was “Non-Toxic”. For the same compound, the Activity (Mus musculus [13]) was “inactive”, the Activity (Mus musculus [14]) was “Active” and the Foxp3+ cells at 3 µM [15] was 20.8%. The pIC50 (T-cell) was 6.23, the Activity [16] was “Active” and the MRT last at 24 h [17] was 12.4 h. For the same compound, the inhibition (CD4+ve Th [18]) was “Active”, the clearance [19] was 103 mL/min/kg and the pKd (Pyruvate kinase PKM) was 7.74. The bioavailability [20] was 2.8%, the Activity (Mus musculus [21]) was “Active” and the inhibition (CD4+ve Th [22]) was “Active”. The Activity (Mus musculus [23]) was “inactive”, the Activity (Mus musculus [24]) was “inactive” and the half-life [25] was 2 h. The Activity (Mus musculus [26]) was “Active”.
